Reference: PMC8775252, “Characterization of Alternaria porri causing onion purple blotch and its antifungal compound magnolol identified from Caryodaphnopsis baviensis” (PLoS ONE, 2022)
≈ marks a conversion by molar mass, not a printed value. Where two headings read alike, the source gives them in different places.

What was measured:
[1] = tested on: Phytophthora infestans; assay: microbe, parasite or virus in culture; format: cell-based; conditions: 72 h, 3 days, 25°C
[2] = tested on: Botrytis cinerea; assay: microbe, parasite or virus in culture; format: cell-based; conditions: 72 h, 3 days, 25°C
[3] = tested on: Fusarium oxysporum; assay: microbe, parasite or virus in culture; format: cell-based, Fusarium oxysporum f. sp. lycopersici; conditions: 72 h, 3 days, 25°C
[4] = tested on: Alternaria porri; assay: microbe, parasite or virus in culture; format: cell-based; conditions: 72 h, 3 days, 25°C
[5] = tested on: Magnaporthe oryzae; assay: microbe, parasite or virus in culture; format: cell-based; conditions: Pyricularia oryzae, 72 h; 3 days, 25°C
[6] = tested on: Alternaria brassicicola; assay: microbe, parasite or virus in culture; format: cell-based; conditions: 72 h, 3 days, 25°C
[7] = tested on: Colletotrichum cocodes; assay: microbe, parasite or virus in culture; format: cell-based; conditions: 72 h, 3 days, 25°C
[8] = molecular target: OXPHOS complex II (Bos taurus, UniProt P31039+P35720+Q3T189+Q95123); assay: biochemical
Sequence of OXPHOS complex II (Q95123 56-158): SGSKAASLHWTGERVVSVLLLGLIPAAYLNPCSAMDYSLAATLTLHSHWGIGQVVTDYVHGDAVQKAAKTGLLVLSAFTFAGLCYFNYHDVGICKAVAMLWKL
Sequence of OXPHOS complex II (P31039 44-665): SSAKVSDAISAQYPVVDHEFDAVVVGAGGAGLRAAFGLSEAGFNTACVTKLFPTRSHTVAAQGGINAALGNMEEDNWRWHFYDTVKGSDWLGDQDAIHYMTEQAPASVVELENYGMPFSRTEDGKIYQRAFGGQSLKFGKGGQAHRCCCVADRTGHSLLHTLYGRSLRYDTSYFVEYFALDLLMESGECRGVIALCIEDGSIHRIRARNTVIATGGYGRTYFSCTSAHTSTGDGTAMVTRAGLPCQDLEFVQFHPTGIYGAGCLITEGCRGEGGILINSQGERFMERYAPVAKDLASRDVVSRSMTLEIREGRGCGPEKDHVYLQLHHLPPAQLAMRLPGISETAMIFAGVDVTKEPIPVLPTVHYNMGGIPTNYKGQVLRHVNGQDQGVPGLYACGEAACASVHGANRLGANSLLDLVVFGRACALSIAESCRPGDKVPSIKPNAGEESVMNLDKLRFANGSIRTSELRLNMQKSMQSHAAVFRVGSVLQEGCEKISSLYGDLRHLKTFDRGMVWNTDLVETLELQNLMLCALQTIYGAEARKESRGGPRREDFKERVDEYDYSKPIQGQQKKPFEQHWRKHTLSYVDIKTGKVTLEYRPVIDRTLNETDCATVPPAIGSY
Sequence of OXPHOS complex II (P35720 30-169): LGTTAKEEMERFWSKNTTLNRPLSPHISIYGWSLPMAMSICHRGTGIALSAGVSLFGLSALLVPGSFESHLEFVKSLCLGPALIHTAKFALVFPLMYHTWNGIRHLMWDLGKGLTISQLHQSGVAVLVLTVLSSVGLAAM
Sequence of OXPHOS complex II (Q3T189 29-280): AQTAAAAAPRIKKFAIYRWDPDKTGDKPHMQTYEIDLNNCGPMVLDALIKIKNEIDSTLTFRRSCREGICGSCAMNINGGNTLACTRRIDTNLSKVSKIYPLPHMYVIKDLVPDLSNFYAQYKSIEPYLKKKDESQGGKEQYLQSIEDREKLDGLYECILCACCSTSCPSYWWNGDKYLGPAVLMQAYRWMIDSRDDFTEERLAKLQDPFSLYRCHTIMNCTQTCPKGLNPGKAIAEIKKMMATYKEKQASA

[9] = molecular target: OXPHOS complex III (Bos taurus, UniProt P00125+P00157+P13272); format: biochemical
[10] = tested on: onion plants; conditions: in vivo
[11] = molecular target: OXPHOS complex IV (Bos taurus, UniProt P00396+P68530); assay: biochemical
[12] = tested on: Alternaria porri; assay: microbe, parasite or virus in culture; format: cell-based
[13] = tested on: Alternaria porri; assay: microbe, parasite or virus in culture; format: cell-based; remark: listed apart in the source
[14] = molecular target: OXPHOS complex V (Bos taurus, UniProt P00829+P19483); assay: MitoTox Complete OXPHOS Activity Assay; format: biochemical
[15] = tested on: OXPHOS complex I; format: biochemical
[16] = in vivo, cited from earlier work
[17] = tested on: onion purple blotch (Alternaria porri); format: in vivo, Allium cepa L.; conditions: sprayed at 100 μg/ml, 5 dpi

C[C@@H]1C[C@@H]([C@H](O)CC2CC(=O)NC(=O)C2)C(=O)[C@@H](C)C1 [Cycloheximide, cycloheximide, reference compound]
MIC [1]: 1.6 µg/mL (≈ 5.69 µM) | MIC [2]: 50 µg/mL (≈ 178 µM) | MIC [3]: 200 µg/mL (≈ 711 µM) | MIC [4]: 6.3 µg/mL (≈ 22.4 µM) | MIC [5]: 6.3 µg/mL (≈ 22.4 µM) | MIC [6]: 6.3 µg/mL (≈ 22.4 µM) | MIC [7]: 1.6 µg/mL (≈ 5.69 µM)

O=C(CC(=O)C(F)(F)F)c1cccs1 [TTFA, thenoyltrifluoroacetone, reference compound]
effect on complex II activity [8]: suppressed each complex activity in a concentration-dependent manner

CCCCCC[C@H]1C(=O)O[C@H](C)[C@H](NC(=O)c2cccc(NC=O)c2O)C(=O)O[C@@H](C)[C@@H]1OC(=O)CC(C)C [antimycin A, reference compound]
effect on complex III activity [9]: suppressed each complex activity in a concentration-dependent manner

C=CCc1ccc(O)c(-c2cc(CC=C)ccc2O)c1 [magnolol, 5,5’-di-2-propenyl-1,1’-biphenyl-2,2’-diol]
phytotoxic symptoms [10]: no phytotoxic symptoms | MIC [1]: > 100 µg/mL | MIC [2]: 25 µg/mL (≈ 93.9 µM) | IC50 ([9]; read-out: IC50, complex III activity): 19.4 µM | MIC [3]: 25 µg/mL (≈ 93.9 µM) | IC50 [11]: 10.9 µM | IC50 ([12]; 10 h, read-out: IC50, spore germination): 4.5 µg/mL (≈ 16.9 µM) | MIC ([12]; read-out: MIC, spore germination completely inhibited): 11 µg/mL (≈ 41.3 µM) | MIC [4]: 6.3 µg/mL (≈ 23.7 µM) | MIC [5]: 3.1 µg/mL (≈ 11.6 µM) | inhibitory activity on mycelial growth compared with mancozeb [13]: more potent than that of the broad-spectrum fungicide mancozeb | IC50 ([13]; Alternaria porri, 168 h, read-out: IC50, mycelial growth): 5.4 µg/mL (≈ 20.3 µM) | MIC ([13]; Alternaria porri, read-out: MIC, mycelial growth completely inhibited): 100 µg/mL (≈ 375 µM) | IC50 [8]: 8.3 µM | IC50 ([14]; read-out: IC50, complex V activity): 4.7 µM | activity of complex I [15]: 78% | effect on complex I activity [15]: decreased by the magnolol treatment in a concentration-dependent manner | MIC [6]: 6.3 µg/mL (≈ 23.7 µM) | MIC [7]: 6.3 µg/mL (≈ 23.7 µM) | excreted in the feces and urine ([16]; po): > 90% | oral dose remaining circulating in the free form [16]: 1%

CC[C@H]1/C=C/C=C/C[C@@H](C)[C@H](O)[C@@](C)(O)C(=O)[C@@H](C)[C@H](O)[C@@H](C)C(=O)[C@@H](C)[C@H](O)[C@@H](C)/C=C/C(=O)O[C@@H]2[C@H](C)[C@H](CC1)O[C@]1(CC[C@H](C)[C@H](C[C@@H](C)O)O1)[C@H]2C [oligomycin, reference compound]
effect on complex V activity ([14]; result in words, S6 Fig): suppressed each complex activity in a concentration-dependent manner

C=C(C)[C@H]1Cc2c(ccc3c2O[C@@H]2COc4cc(OC)c(OC)cc4[C@@H]2C3=O)O1 [rotenone, reference compound]
effect on complex I activity [15]: suppressed each complex activity in a concentration-dependent manner

mancozeb
disease control value [17]: 95%
